Laboratory results published in ChEMBL document CHEMBL1201862, “PubChem BioAssay data set” (2004).
Calls of active or inactive are those of the source.

Key:
[1] = target: Cytochrome P450 2D6 (Homo sapiens, UniProt P10635)
[2] = target: Cytochrome P450 3A4 (Homo sapiens, UniProt P08684);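 note: CYP3A4 tested as one member of a cytochrome P450 panel screen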
[3] = target: T1, Replicative DNA helicase DnaB (Mycobacterium tuberculosis, UniProt P9WMR3); experiment: DnaB intein splicing inhibitors, dose response, biochemical, cell-free fluorescence (AID 449749); assay type: functional
T1 sequence (P9WMR3 whole entry): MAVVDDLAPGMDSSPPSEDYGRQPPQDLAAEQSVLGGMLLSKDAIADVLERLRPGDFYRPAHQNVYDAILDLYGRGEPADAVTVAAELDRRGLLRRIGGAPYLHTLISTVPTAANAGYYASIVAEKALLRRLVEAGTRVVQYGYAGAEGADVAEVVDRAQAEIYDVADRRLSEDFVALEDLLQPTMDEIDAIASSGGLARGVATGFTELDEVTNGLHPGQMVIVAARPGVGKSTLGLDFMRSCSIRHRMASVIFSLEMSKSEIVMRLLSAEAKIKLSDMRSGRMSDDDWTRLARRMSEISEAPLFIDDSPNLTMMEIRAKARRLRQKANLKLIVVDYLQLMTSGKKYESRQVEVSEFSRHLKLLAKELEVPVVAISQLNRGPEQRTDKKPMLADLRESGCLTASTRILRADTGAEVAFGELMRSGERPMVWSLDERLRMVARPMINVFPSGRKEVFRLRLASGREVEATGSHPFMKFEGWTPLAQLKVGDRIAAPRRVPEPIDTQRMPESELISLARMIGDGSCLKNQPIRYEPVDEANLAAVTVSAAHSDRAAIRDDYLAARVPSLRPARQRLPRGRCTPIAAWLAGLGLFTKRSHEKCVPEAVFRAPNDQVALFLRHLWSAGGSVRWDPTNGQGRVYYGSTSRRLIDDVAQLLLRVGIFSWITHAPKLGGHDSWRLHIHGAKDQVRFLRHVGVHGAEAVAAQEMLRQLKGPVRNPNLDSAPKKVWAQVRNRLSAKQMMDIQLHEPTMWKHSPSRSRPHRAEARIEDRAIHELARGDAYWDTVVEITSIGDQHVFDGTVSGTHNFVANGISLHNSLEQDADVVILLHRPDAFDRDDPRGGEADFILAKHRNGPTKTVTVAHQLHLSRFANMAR

[4] = target: T2, Protein RecA (Mycobacterium tuberculosis, UniProt P9WHJ3); experiment: Fluorescence Cell-Free Homogeneous Dose Retest to Identify Inhibitors of RecA-Intein Splicing Activity. [Related pubchem assays (depositor defined):AID2097, AID2223, AID489010, AID492950]; assay type: functional
T2 sequence (P9WHJ3 whole entry): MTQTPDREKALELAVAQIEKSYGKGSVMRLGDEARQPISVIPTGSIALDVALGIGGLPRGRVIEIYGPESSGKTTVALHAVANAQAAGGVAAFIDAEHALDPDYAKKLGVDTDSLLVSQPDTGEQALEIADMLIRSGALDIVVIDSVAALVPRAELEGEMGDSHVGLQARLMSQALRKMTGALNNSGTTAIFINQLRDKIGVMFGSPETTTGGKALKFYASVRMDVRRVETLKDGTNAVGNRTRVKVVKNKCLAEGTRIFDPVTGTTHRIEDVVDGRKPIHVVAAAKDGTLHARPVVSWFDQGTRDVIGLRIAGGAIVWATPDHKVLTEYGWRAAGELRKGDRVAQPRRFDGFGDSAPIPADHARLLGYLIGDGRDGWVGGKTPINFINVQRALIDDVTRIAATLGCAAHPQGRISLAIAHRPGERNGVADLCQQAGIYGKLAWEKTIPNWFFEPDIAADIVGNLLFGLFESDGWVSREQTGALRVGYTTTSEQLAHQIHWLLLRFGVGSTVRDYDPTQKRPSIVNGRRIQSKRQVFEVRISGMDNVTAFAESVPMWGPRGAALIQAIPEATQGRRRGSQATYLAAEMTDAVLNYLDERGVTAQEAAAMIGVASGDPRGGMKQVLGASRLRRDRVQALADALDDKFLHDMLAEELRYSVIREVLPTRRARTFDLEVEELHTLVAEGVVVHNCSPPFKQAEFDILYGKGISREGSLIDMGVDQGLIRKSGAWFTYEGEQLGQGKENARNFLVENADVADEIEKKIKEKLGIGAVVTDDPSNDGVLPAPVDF

[5] = target: T3, Heat shock factor protein 1 (Mus musculus, UniProt P38532); experiment: enhancement of HSF1-driven luciferase signal – cell-based, NIH3T3, luminescence, dose retest, confirmation (AID 435004); assay type: functional;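 note: stress induced by proteasome inhibitor MG132 added 30 min after compound; luciferase reporter driven by HSF1 response element in NIH3T3 cells; actives raise luminescence as potentiators of the MG132 stress response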
T3 sequence (P38532 whole entry): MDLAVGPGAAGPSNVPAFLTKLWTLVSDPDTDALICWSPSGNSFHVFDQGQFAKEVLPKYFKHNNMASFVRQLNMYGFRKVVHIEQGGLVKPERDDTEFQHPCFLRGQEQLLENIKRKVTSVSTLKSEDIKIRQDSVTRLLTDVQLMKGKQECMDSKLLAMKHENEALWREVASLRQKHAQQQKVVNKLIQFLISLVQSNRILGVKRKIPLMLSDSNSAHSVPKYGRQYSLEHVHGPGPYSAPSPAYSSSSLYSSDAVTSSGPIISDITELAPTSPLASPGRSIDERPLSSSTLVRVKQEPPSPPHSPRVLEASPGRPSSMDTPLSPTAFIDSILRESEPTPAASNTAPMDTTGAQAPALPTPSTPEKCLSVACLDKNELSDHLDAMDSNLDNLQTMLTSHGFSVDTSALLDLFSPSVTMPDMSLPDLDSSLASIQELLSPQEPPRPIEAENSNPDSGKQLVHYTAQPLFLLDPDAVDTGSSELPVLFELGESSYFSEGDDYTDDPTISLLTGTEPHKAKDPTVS

[6] = target: Cytochrome P450 2C19 (Homo sapiens, UniProt P33261); experiment: Cytochrome panel assay with activity outcomes. Panel member name: p450-cyp2c19 Compounds with AC50 equal or less than 10 uM are considered active; assay type: functional; settings: read-out: AC50
Cytochrome P450 2C19, sequence (P33261 whole entry): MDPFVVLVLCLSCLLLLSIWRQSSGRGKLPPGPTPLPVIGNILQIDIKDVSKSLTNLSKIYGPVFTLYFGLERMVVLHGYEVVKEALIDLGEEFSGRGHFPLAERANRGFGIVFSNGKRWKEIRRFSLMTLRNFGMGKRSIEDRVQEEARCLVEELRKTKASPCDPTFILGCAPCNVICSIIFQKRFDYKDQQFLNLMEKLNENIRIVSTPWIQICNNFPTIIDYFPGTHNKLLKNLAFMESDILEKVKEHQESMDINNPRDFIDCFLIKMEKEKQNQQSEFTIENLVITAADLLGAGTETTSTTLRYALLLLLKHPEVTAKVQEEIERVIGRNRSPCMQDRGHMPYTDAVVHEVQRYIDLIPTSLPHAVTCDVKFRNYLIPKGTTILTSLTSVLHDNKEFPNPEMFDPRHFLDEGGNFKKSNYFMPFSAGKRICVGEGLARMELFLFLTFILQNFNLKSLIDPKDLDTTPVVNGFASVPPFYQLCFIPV

[7] = target: Cytochrome P450 2C9 (Homo sapiens, UniProt P11712)
Cytochrome P450 2C9, sequence (P11712 whole entry): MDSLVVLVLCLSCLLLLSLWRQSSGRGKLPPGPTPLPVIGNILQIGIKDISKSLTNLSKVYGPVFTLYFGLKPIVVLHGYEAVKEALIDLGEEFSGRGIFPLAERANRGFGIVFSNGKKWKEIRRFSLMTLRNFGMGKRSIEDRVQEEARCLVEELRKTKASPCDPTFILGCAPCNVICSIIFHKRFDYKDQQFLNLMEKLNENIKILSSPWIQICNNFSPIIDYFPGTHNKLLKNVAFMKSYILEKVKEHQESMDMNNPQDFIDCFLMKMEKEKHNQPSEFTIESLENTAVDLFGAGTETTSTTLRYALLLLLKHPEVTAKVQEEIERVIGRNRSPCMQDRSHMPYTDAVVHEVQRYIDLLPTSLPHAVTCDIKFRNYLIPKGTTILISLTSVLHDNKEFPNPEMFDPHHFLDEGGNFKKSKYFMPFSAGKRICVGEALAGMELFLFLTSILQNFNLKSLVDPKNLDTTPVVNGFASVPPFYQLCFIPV

[8] = viability of uninfected HEp-2 cells – cell-based, HTS, cytotoxicity control for RSV inhibitor project, dose response (AID 2410); assay type: functional; settings: human respiratory syncytial virus
[9] = test system: Streptococcus sp. 'group A'; experiment: Streptococcus pyogenes SK(-)GAS viability under kanamycin – luminescence, BacTiterGlo, confirmation, counter-screen for streptokinase expression inhibitor project, dose response (AID 1900); assay type: functional, organism-based
[10] = target: T4, Streptokinase A (Streptococcus pyogenes serotype M1, UniProt P10520); experiment: viability-normalized secreted streptokinase activity reduction – plasminogen activation absorbance, OD405, dose response (AID 1914); assay type: functional, Streptococcus pyogenes M1 GAS;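 note: secreted streptokinase activity via plasminogen activation per viability signal from cell pellet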
T4 sequence (P10520 whole entry): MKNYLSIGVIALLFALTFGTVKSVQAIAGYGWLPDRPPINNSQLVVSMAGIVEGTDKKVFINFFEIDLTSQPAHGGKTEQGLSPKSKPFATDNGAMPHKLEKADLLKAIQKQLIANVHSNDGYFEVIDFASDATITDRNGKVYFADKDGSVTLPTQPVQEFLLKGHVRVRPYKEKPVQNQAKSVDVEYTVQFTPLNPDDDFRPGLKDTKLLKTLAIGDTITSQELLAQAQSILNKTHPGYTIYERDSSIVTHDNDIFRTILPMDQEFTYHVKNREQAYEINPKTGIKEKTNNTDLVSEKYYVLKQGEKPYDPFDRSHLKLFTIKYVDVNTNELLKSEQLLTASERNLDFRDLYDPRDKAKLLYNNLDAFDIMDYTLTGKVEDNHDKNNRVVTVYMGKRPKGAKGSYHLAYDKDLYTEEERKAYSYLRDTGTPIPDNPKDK

[11] = test system: Streptococcus; experiment: GAS UMAA2166 growth inhibition – luminescence, BacTiterGlo, counter-screen for streptokinase expression inhibitor project, dose response (AID 1915); assay type: functional, organism-based;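 note: potency for reduction of bacterial viability or growth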

Cytochrome P450 3A4, sequence (P08684 whole entry): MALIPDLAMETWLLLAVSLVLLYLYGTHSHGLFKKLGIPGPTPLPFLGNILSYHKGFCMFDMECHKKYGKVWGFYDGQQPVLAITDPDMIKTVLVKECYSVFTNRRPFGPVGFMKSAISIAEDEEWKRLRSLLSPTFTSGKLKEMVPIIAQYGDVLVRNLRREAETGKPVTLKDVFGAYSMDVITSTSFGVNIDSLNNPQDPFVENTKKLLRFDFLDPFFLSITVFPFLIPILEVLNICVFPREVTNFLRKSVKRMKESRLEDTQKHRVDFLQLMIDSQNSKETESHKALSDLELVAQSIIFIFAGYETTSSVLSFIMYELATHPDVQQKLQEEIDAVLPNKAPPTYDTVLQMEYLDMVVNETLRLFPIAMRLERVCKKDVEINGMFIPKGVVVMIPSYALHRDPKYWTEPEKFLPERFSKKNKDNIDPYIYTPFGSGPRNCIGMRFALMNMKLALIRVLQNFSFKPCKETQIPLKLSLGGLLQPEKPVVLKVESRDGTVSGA
Cytochrome P450 2D6, sequence (P10635 whole entry): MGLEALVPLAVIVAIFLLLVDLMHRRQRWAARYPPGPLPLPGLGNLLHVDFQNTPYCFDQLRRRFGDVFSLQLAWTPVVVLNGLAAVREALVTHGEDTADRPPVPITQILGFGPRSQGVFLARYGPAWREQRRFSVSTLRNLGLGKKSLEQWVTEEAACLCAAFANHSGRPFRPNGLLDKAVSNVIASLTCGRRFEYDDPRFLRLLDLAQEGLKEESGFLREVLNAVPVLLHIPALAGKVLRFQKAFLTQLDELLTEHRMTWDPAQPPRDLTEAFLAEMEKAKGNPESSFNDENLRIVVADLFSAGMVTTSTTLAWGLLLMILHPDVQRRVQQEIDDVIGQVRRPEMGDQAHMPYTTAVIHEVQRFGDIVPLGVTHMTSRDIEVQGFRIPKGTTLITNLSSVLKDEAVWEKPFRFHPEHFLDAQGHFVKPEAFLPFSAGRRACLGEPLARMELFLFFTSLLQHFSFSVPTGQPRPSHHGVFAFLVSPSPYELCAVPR

In the case of CCc1ccccc1N=C(S)NC1CC2CCC(C1)N2Cc1ccco1 (stereo unspecified), the AC50 [1] is reported as 14.1 µM (inconclusive) and the AC50 [2] is reported as 20 µM (inconclusive).

For CCOc1ccc(Cl)cc1C(c1c(C)n[nH]c1O)c1c(C)n[nH]c1O, the AC50 [3] was 0.551 µM (active) and the EC50 [4] was 0.221 µM (active).

With CC1(C)CC(=O)C/C(=N/NC(=O)CCCOc2ccc(Cl)cc2Cl)C1 the EC50 [5] was > 260 µM (inactive).

In the case of COc1ccccc1N1CCN(C(=O)c2ccc3c(=O)n(Cc4ccco4)c(=S)[nH]c3c2)CC1, the EC50 [5] is reported as > 260 µM (inactive).

With CCOC(=O)C1=C(CN2CCc3ccccc32)NC(=O)NC1c1ccc(Cl)cc1 (stereo unspecified) the EC50 [5] was > 260 µM (inactive).

In the case of CC1=C(C)/C(=N\OC(=O)/C=C/c2ccccc2)C=CC1=O, the AC50 [3] is reported as > 380 µM (inactive) and the EC50 [4] is reported as 0.532 µM (active).

In the case of N#Cc1cccc(-c2cncnc2-n2ccnc2)c1, the AC50 [6] is reported as 39.8 µM (inconclusive) and the AC50 [1] is reported as 39.8 µM (inconclusive).

For COc1ccc(C2CC3=Nc4ncnn4C(c4ccccc4)C3=C(O)C2)cc1 (stereo unspecified), the EC50 [5] was > 260 µM (inactive).

For CCC/C=C(\CCC)C(NC(=O)c1ccc(C(F)(F)F)cc1)c1ccc(C(F)(F)F)cc1 (stereo unspecified), the AC50 [2] was 10 µM (inconclusive).

In the case of O=C(N/N=C/c1c[nH]c2ccc(Br)cc12)c1ccn(Cc2ccc(Cl)cc2)n1, the AC50 [2] is reported as 3.98 µM (inconclusive) and the AC50 [7] is reported as 39.8 µM (inconclusive).

For Cn1c(-c2sc(=S)n(-c3ccccc3)c2N)nc2ccccc21, the AC50 [1] was 1.26 µM (inconclusive).

For Cc1ccc(S(=O)(=O)N[C@@H](CCc2ccccc2)CC(=O)C(C)(C)C)cc1, the AC50 [1] was 3.16 µM (inconclusive).

In the case of CC(=O)O[C@]12CC[N@+]3(C)CCCC[C@@H]3[C-]1Nc1ccccc12, the AC50 [1] is reported as 3.16 µM (inconclusive).

For CN(C)CC(C)(C)CN1c2ccccc2Sc2ccccc21, the AC50 [6] was 2 µM (inconclusive) and the AC50 [2] was 5.01 µM (inconclusive).

For Cn1cccc1C(=O)N1CCC2(CCCN(Cc3ccccc3)C2)CC1, the AC50 [2] was 31.6 µM (inconclusive).

For Clc1ccc(-c2nc(/C=N/N3CCOCC3)c3ccccn23)cc1, the EC50 [5] was > 260 µM (inactive).

With CCNc1ncc2ncc(=O)n(Cc3cccs3)c2n1 the AC50 [6] was 20 µM (inconclusive), the AC50 [2] was 20 µM (inconclusive) and the AC50 [7] was 15.8 µM (inconclusive).

With CC1=C(Nc2c(C)cc(O)cc2O)C(=O)C=c2oc3c(c21)C(C)=C(Nc1c(C)cc(O)cc1O)C(=O)C=3 the AC50 [1] was 2.51 µM (inconclusive).

For CC(C)Cn1c(C(C)C)nc([N+](=O)[O-])c1S(=O)(=O)c1ccc(F)cc1, the AC50 [3] was 13.9 µM (active) and the EC50 [4] was 9.69 µM (active).

In the case of Cc1cccc(CN(C(S)=Nc2c(C)cccc2C)c2cccnc2)c1, the EC50 [5] is reported as > 260 µM (inactive).

With COc1cc2c(cc1NC(=O)COC(=O)[C@@H](NS(=O)(=O)c1ccccc1)C(C)C)oc1ccccc12 the EC50 [5] was > 260 µM (inactive).

With CN1CCN(c2ccnc(-c3ccoc3)n2)CC1 the AC50 [1] was 39.8 µM (inconclusive).

For O=C(/C=C/c1ccccc1)c1ccc2c3c(cccc13)CC2, the AC50 [3] was > 380 µM (inactive) and the EC50 [4] was 11.4 µM (active).

For Cc1ccc(S(=O)(=O)n2cnc3ccccc32)cc1[N+](=O)[O-], the EC50 [5] was > 260 µM (inactive).

With N#C/C(=C(/O)CN1CCN(c2ccccc2F)CC1)c1nc(-c2ccccc2)cs1 the CC50 [8] was 5 µM (active), the EC50 [9] was 11.7 µM (active) and the EC50 [10] was > 150 µM (not active). The EC50 [11] was 86.1 µM (active).

In the case of CC(=O)c1ccc(NC(=O)CCCN2C(=O)/C(=C/C(C)=C/c3ccccc3)SC2=S)cc1, the EC50 [5] is reported as 106 µM (active).

For COC(=O)c1ccc(C(NC(=O)c2ccccc2)[C@]2(C)C[C@H]2C2CCCCC2)cc1 (stereo partly specified), the AC50 [2] was 6.31 µM (inconclusive).

In the case of COCCCNCCOc1ccc(C)cc1[N+](=O)[O-], the EC50 [5] is reported as > 260 µM (inactive).

For COc1cccc(-c2ccc3ncnc(N4CCN(C)CC4)c3c2)c1, the AC50 [6] was 31.6 µM (inconclusive) and the AC50 [1] was 39.8 µM (inconclusive).

In the case of CN(C)Cc1cc(C(F)(F)F)ccc1C(O)(c1ccccc1)c1ccccc1, the AC50 [1] is reported as 3.16 µM (inconclusive).

With COc1ccc(C)cc1NC(=O)C/C(C)=N/NC(=O)Cc1cccc2ccccc12 the EC50 [5] was > 260 µM (inactive).

With CCOc1ccc(/C=N/NC(=S)NC2CC3CC2C2C=CCC32)cc1 (stereo unspecified) the EC50 [9] was 14.4 µM (active), the EC50 [10] was > 150 µM (not active) and the EC50 [11] was 19.8 µM (active).

With CC1=NN(c2ccccc2)C(=O)/C1=C/c1cn(C)c2ccccc12 the AC50 [3] was 57.1 µM (active) and the EC50 [4] was 39 µM (active).

In the case of O=C(O)c1c(Br)c(Br)c(Br)c(Br)c1C1c2ccc(O)cc2Oc2cc(O)ccc21, the AC50 [2] is reported as 3.98 µM (inconclusive) and the AC50 [7] is reported as 7.94 µM (inconclusive).

With CCc1ccccc1NC(=O)COc1ccc2c(=O)c(Oc3cc(C)ccc3C)coc2c1 the EC50 [5] was > 260 µM (inactive).

With Cc1ccc(-c2nc3ncccn3c2Nc2ccccc2C)o1 the EC50 [5] was > 260 µM (inactive).

In the case of O=C(c1ccc(Cl)c(Cl)c1)c1cc(-c2ccccn2)c(N2CCOCC2)s1, the AC50 [1] is reported as 10 µM (inconclusive).

With CSc1nc(Sc2cccc(Cl)c2)c2ccccc2n1 the AC50 [2] was 35.5 µM (inconclusive).
